Measurements published in US11371040B2, “Endonuclease-barcoding” (priority 2015, dated 2022).

Assays:
PC9 cells [1] = test: KRAS-G12 CRISPR-barcoding in PC9 cells; assay type: cell-based; details: PC9 cells treated in the presence or absence of inhibitor
Description: CRISPR Barcoding sgRNA target sequences (See Sequence Listing—SEQ ID No 1-14) were designed using the CRISPR Design tool hosted by the Massachusetts Institute of Technology (see the website located at crispr.mit,edu) to minimize potential off-target effects. Oligos encoding the targeting sequence were then annealed and ligated into the pSpCas9(BB)-2A-Puro (Ran et al., 2013) vector digested with Bbsl (New England Biolabs). The sequence of the ssODNs (Integrated DNA Technologies) used for CRISPR/Cas9-mediated HDR, containing one missense/nonsense mutation coupled with different silent mutations, are provided in the sequence listing (SEQ ID No 15-29). The set of silent mutations is designed to enable PCR specificity and to avoid recognition by the corresponding sgRNA used to cleave the endogenous sequence. For each targeted locus, cells were co-transfected with 2 μg of the CRISPR/Cas9 plasmid and […] of either the control or the sense/nonsense ssODN (50 μM). […]
gDNA was extracted using the NucleoSpin Tissue kit (Macherey-Nagel). […] Primer specificity for each particular barcode was assessed. qPCR was performed from 100 ng of gDNA using SYBR Green (Life Technologies) on a 7900 HT Fast-Real-Time, a Q-PCR ABI PRISM 7500 or a QuantStudio Flex PCR System (Life Technologies). qPCR analysis was performed using the standard curve or the Pfaffl methods (Pfaffl, 2001). […]

PC9 cells [2] = test: EML4-ALK inversion barcoding in PC9 cells; assay type: cell-based
PC9 cells [3] = test: Mouse xenografts of multiplex CRISPR-barcoded PC9 cells; assay type: in vivo, SCID mice
Method: PC9 cells containing the EGFR-T790, KRAS-G12 and EML4-ALK barcodes were resuspended in PBS and subcutaneously inoculated in the left and right flank (2×10^6 cells per site) of male SCID mice (NCI). The size of the tumors was measured by caliper every 3-4 days. […] When the size of at least one of the tumors reached the arbitrary volume of 550 mm^3, the mice were sacrificed and gDNA was extracted from the tumors for qPCR analysis.
When at least one of the two tumors exceeded the arbitrary volume of 550 mm^3, the mice were sacrificed and gDNA was derived from the tumors. The frequency of the three different mutations in the tumor samples was measured by qPCR and normalized to the levels observed in the same batch of cells prior to injection in the mice.

MCF7 cells = test: TP53 CRISPR-barcoding (TP53-STOP vs TP53-WT barcode, qPCR) in MCF7 cells; assay type: cell-based; details: relative to TP53-WT control barcode
Method: (§1) 293T (human embryonic kidney), DLD-1, HCT-116 (colorectal carcinoma), MCF-7 (breast cancer) were obtained from ATCC, PC9 cells (NSCLC) were obtained from ECACC-Sigma-Aldrich, Kelly cells (neuroblastoma) were a kind gift from Dr. C. Einvik. All cells were grown in Dulbecco's modified Eagle's Medium (Life technologies) except Kelly and PC-9 cells, grown in Roswell Park Memorial Institute medium (Life technologies), both supplemented with 10% fetal bovine serum (FBS, Life Technologies) and 0.6% penicillin/streptomycin (Life technologies). Cells were transfected with a Nucleofector II device (Lonza) using the Amaxa Nucleofector kit (Lonza) and electroporation program recommended by the manufacturer. 293T cells were transfected using polyethylenimine (Polysciences). The efficiency of each transfection was assessed in parallel using a GFP-containing plasmid. […]
(§2) gDNA was extracted using the NucleoSpin Tissue kit (Macherey-Nagel). […] Primer specificity for each particular barcode was assessed. qPCR was performed from 100 ng of gDNA using SYBR Green (Life Technologies) on a 7900 HT Fast-Real-Time, a Q-PCR ABI PRISM 7500 or a QuantStudio Flex PCR System (Life Technologies). qPCR analysis was performed using the standard curve or the Pfaffl methods (Pfaffl, 2001).

HCT-116 cells = test: TP53 CRISPR-barcoding (TP53-STOP vs TP53-WT barcode, qPCR) in HCT-116 cells; assay type: cell-based; details: relative to TP53-WT control barcode
Method: as §1, §2

Compound | enrichment of KRAS-G12D cells (PC9 cells [1]) | enrichment of EML4-ALK containing PC9 cells (PC9 cells [2]) | growth of the tumors (PC9 cells [3]; 25 mg/kg/day by gavage, from day 16 after injection) | proportion of all three mutations (EGFR-T790M, KRAS-G12D, EML4-ALK) in the tumors (PC9 cells [3]; 25 mg/kg/day, qPCR, normalized to cells prior to injection) | fraction of cells containing the TP53-STOP barcode (MCF7 cells) | fraction of cells containing the TP53-STOP barcode (HCT-116 cells)
COc1cc2ncnc(Nc3ccc(F)c(Cl)c3)c2cc1OCCCN1CCOCC1 [gefitinib] | significant enrichment | induced an enrichment | initially arrested upon gefitinib treatment, but it eventually resumed after a few weeks | strongly increased | – | –
COc1cccc2c1C(=O)c1c(O)c3c(c(O)c1C2=O)C[C@@](O)(C(=O)CO)C[C@@H]3O[C@H]1C[C@H](N)[C@H](O)[C@H](C)O1 [doxorubicin] | – | – | – | – | did not affect | did not affect
COc1ccc(C2=N[C@@H](c3ccc(Cl)cc3)[C@@H](c3ccc(Cl)cc3)N2C(=O)N2CCNC(=O)C2)c(OC(C)C)c1 (racemic) [Nutlin 3] | – | – | – | – | significantly increased | significantly increased
